Values of other authors as cited in patent US20020131987A1, “METHOD FOR ENHANCING STABLE CELLULAR CREATINE CONCENTRATION” (priority 1997, published 2002).

What was measured:
[1] = not given; remark: listed apart in the source
[2] = not given; remark: listed apart in the source
[3] = not given; remark: listed apart in the source
[4] = not given; remark: listed apart in the source

Structure (SMILES)	volume of alcohol in which one gram dissolves (alcohol)	volume of water in which one gram dissolves (water) [mL]	reaction to litmus [1]	formation of creatinine in aqueous solution ([2]; dissolved in an aqueous solution)	decomposition in the alimentary tract ([3]; after oral administration, no appreciable increase in urinary urea or ammonia)	absorption from the alimentary tract ([3]; oral administration)	formation of creatinine in acid solution ([2]; acid solution)	time for conversion of creatine to creatinine ([2]; acidic aqueous solution)	creatine lost from the cell ([4]; 70 kg male)	loss of creatine from skeletal muscle ([4]; human skeletal muscle)
CN(CC(=O)O)C(=N)N.O [creatine monohydrate]	about 9 liters	75	neutral	creatinine is formed	–	–	–	–	–	–
CN(CC(=O)O)C(=N)N [creatine]	–	–	–	–	not decomposed	completely absorbed	complete	a number of hours	approximately 2 grams per day	about 3 % per day
